PubChem BioAssay (NCI)
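Where inhibition never reached the appropriate level, the endpoint shown equals the highest concentration tested. Otherwise, values were interpolated linearly from a five-concentration, 48-hour dose response in 96-well plates. Definition used: TGI = concentration required for complete inhibition of growth.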

system: LOX IMVI melanoma; experiment: growth of human tumour cells (NCI), 48 h

**Q.** For Cc1ccc(-c2cc(=O)c3cc4c(cc3[nH]2)OCO4)cc1, which TGI is on record?
**A.** The TGI was over 100 µM.

**Q.** How did the TGI turn out when CCOC(=O)c1c(NNc2ccccc2)nc2ccccc2c1-c1ccccc1 was run?
**A.** Its TGI is 40.1 µM.

system: DMS 273 small cell lung; experiment: growth of human tumour cells (NCI), 48 h

**Q.** How did the TGI turn out when COc1ccccc1N=NC(C(=O)c1ccccc1)C(=O)c1ccccc1 was run?
**A.** Its TGI is 57.9 µM.

**Q.** CC(=O)O[C@]1(C)CCC2C(C)C(=O)OC2C2C(C)[C@@H](O)CC21 (some centres undefined) was tested. Which TGI did it give?
**A.** The TGI was 54.5 µM.

**Q.** Which TGI does the source give for CCOC(=O)/C=C1/Oc2ccccc2C1(C)O (centres undefined) here?
**A.** Its TGI is over 100 µM.

**Q.** How did the TGI turn out when Cc1ccc(-c2cc(=O)c3cc4c(cc3[nH]2)OCO4)cc1 was run?
**A.** Its TGI is over 25 µM.

**Q.** How did the TGI turn out when CCOC(=O)c1c(NNc2ccccc2)nc2ccccc2c1-c1ccccc1 was run?
**A.** The TGI was over 100 µM.

system: SK-MEL-5 melanoma; experiment: growth of human tumour cells (NCI), 48 h

**Q.** How did the TGI turn out when COc1ccccc1N=NC(C(=O)c1ccccc1)C(=O)c1ccccc1 was run?
**A.** Its TGI is 54.5 µM.

**Q.** CC(=O)O[C@]1(C)CCC2C(C)C(=O)OC2C2C(C)[C@@H](O)CC21 (some centres undefined) was tested. Which TGI did it give?
**A.** The TGI was 89.7 µM.

**Q.** CCOC(=O)/C=C1/Oc2ccccc2C1(C)O (centres undefined) was tested. Which TGI did it give?
**A.** Its TGI is over 100 µM.

**Q.** With Cc1ccc(-c2cc(=O)c3cc4c(cc3[nH]2)OCO4)cc1 as the compound, how does the TGI read?
**A.** Its TGI is 5.6 µM.

**Q.** For CCOC(=O)c1c(NNc2ccccc2)nc2ccccc2c1-c1ccccc1, which TGI is on record?
**A.** The TGI was 35.2 µM.

system: LXFL 529 NSCLC; experiment: growth of human tumour cells (NCI), 48 h

**Q.** Which TGI does the source give for COc1ccccc1N=NC(C(=O)c1ccccc1)C(=O)c1ccccc1 here?
**A.** Its TGI is over 100 µM.

**Q.** With CC(=O)O[C@]1(C)CCC2C(C)C(=O)OC2C2C(C)[C@@H](O)CC21 (some centres undefined) as the compound, how does the TGI read?
**A.** The TGI was 59 µM.

**Q.** CCOC(=O)/C=C1/Oc2ccccc2C1(C)O (centres undefined) was tested. Which TGI did it give?
**A.** Its TGI is over 100 µM.

**Q.** Cc1ccc(-c2cc(=O)c3cc4c(cc3[nH]2)OCO4)cc1 was tested. Which TGI did it give?
**A.** The TGI was 21.8 µM.

**Q.** Which TGI does the source give for CCOC(=O)c1c(NNc2ccccc2)nc2ccccc2c1-c1ccccc1 here?
**A.** Its TGI is over 100 µM.

system: DLD-1 colon; experiment: growth of human tumour cells (NCI), 48 h

**Q.** COc1ccccc1N=NC(C(=O)c1ccccc1)C(=O)c1ccccc1 was tested. Which TGI did it give?
**A.** Its TGI is 54.9 µM.

**Q.** With CC(=O)O[C@]1(C)CCC2C(C)C(=O)OC2C2C(C)[C@@H](O)CC21 (some centres undefined) as the compound, how does the TGI read?
**A.** The TGI was over 100 µM.

**Q.** CCOC(=O)/C=C1/Oc2ccccc2C1(C)O (centres undefined) was tested. Which TGI did it give?
**A.** Its TGI is over 100 µM.

**Q.** How did the TGI turn out when Cc1ccc(-c2cc(=O)c3cc4c(cc3[nH]2)OCO4)cc1 was run?
**A.** The TGI was over 100 µM.

**Q.** CCOC(=O)c1c(NNc2ccccc2)nc2ccccc2c1-c1ccccc1 was tested. Which TGI did it give?
**A.** The TGI was over 100 µM.

system: HCT-116 colon; experiment: growth of human tumour cells (NCI), 48 h

**Q.** With COc1ccccc1N=NC(C(=O)c1ccccc1)C(=O)c1ccccc1 as the compound, how does the TGI read?
**A.** Its TGI is 28.6 µM.

**Q.** How did the TGI turn out when CC(=O)O[C@]1(C)CCC2C(C)C(=O)OC2C2C(C)[C@@H](O)CC21 (some centres undefined) was run?
**A.** Its TGI is 50.8 µM.

**Q.** For CCOC(=O)/C=C1/Oc2ccccc2C1(C)O (centres undefined), which TGI is on record?
**A.** The TGI was over 100 µM.

**Q.** Cc1ccc(-c2cc(=O)c3cc4c(cc3[nH]2)OCO4)cc1 was tested. Which TGI did it give?
**A.** Its TGI is over 100 µM.

**Q.** Which TGI does the source give for CCOC(=O)c1c(NNc2ccccc2)nc2ccccc2c1-c1ccccc1 here?
**A.** The TGI was 47.2 µM.

system: OVCAR-4 ovarian; experiment: growth of human tumour cells (NCI), 48 h

**Q.** With COc1ccccc1N=NC(C(=O)c1ccccc1)C(=O)c1ccccc1 as the compound, how does the TGI read?
**A.** The TGI was 74.2 µM.

**Q.** How did the TGI turn out when CC(=O)O[C@]1(C)CCC2C(C)C(=O)OC2C2C(C)[C@@H](O)CC21 (some centres undefined) was run?
**A.** The TGI was over 100 µM.

**Q.** CCOC(=O)/C=C1/Oc2ccccc2C1(C)O (centres undefined) was tested. Which TGI did it give?
**A.** Its TGI is over 100 µM.

**Q.** With Cc1ccc(-c2cc(=O)c3cc4c(cc3[nH]2)OCO4)cc1 as the compound, how does the TGI read?
**A.** The TGI was over 100 µM.

**Q.** How did the TGI turn out when CCOC(=O)c1c(NNc2ccccc2)nc2ccccc2c1-c1ccccc1 was run?
**A.** The TGI was over 100 µM.

system: HL-60(TB) leukemia; experiment: growth of human tumour cells (NCI), 48 h

**Q.** How did the TGI turn out when COc1ccccc1N=NC(C(=O)c1ccccc1)C(=O)c1ccccc1 was run?
**A.** The TGI was 33.7 µM.

**Q.** With CC(=O)O[C@]1(C)CCC2C(C)C(=O)OC2C2C(C)[C@@H](O)CC21 (some centres undefined) as the compound, how does the TGI read?
**A.** Its TGI is 34.2 µM.

**Q.** CCOC(=O)/C=C1/Oc2ccccc2C1(C)O (centres undefined) was tested. Which TGI did it give?
**A.** The TGI was over 100 µM.

**Q.** For Cc1ccc(-c2cc(=O)c3cc4c(cc3[nH]2)OCO4)cc1, which TGI is on record?
**A.** Its TGI is 2.77 µM.

**Q.** For CCOC(=O)c1c(NNc2ccccc2)nc2ccccc2c1-c1ccccc1, which TGI is on record?
**A.** The TGI was 44.3 µM.

system: 786-0 renal; experiment: growth of human tumour cells (NCI), 48 h

**Q.** Which TGI does the source give for COc1ccccc1N=NC(C(=O)c1ccccc1)C(=O)c1ccccc1 here?
**A.** Its TGI is over 100 µM.

**Q.** CC(=O)O[C@]1(C)CCC2C(C)C(=O)OC2C2C(C)[C@@H](O)CC21 (some centres undefined) was tested. Which TGI did it give?
**A.** Its TGI is over 100 µM.

**Q.** With CCOC(=O)/C=C1/Oc2ccccc2C1(C)O (centres undefined) as the compound, how does the TGI read?
**A.** Its TGI is over 100 µM.

**Q.** For Cc1ccc(-c2cc(=O)c3cc4c(cc3[nH]2)OCO4)cc1, which TGI is on record?
**A.** The TGI was 14.6 µM.

**Q.** With CCOC(=O)c1c(NNc2ccccc2)nc2ccccc2c1-c1ccccc1 as the compound, how does the TGI read?
**A.** Its TGI is over 100 µM.

system: MOLT-4 leukemia; experiment: growth of human tumour cells (NCI), 48 h

**Q.** How did the TGI turn out when COc1ccccc1N=NC(C(=O)c1ccccc1)C(=O)c1ccccc1 was run?
**A.** Its TGI is 60.4 µM.

**Q.** CCOC(=O)/C=C1/Oc2ccccc2C1(C)O (centres undefined) was tested. Which TGI did it give?
**A.** Its TGI is over 100 µM.

**Q.** For Cc1ccc(-c2cc(=O)c3cc4c(cc3[nH]2)OCO4)cc1, which TGI is on record?
**A.** Its TGI is over 42.6 µM.

**Q.** For CCOC(=O)c1c(NNc2ccccc2)nc2ccccc2c1-c1ccccc1, which TGI is on record?
**A.** The TGI was 42.9 µM.

system: HOP-18 NSCLC; experiment: growth of human tumour cells (NCI), 48 h

**Q.** How did the TGI turn out when CC(=O)O[C@]1(C)CCC2C(C)C(=O)OC2C2C(C)[C@@H](O)CC21 (some centres undefined) was run?
**A.** The TGI was over 100 µM.

**Q.** CCOC(=O)/C=C1/Oc2ccccc2C1(C)O (centres undefined) was tested. Which TGI did it give?
**A.** The TGI was over 100 µM.

**Q.** Cc1ccc(-c2cc(=O)c3cc4c(cc3[nH]2)OCO4)cc1 was tested. Which TGI did it give?
**A.** The TGI was 35.2 µM.

**Q.** CCOC(=O)c1c(NNc2ccccc2)nc2ccccc2c1-c1ccccc1 was tested. Which TGI did it give?
**A.** Its TGI is 77.3 µM.

system: A549 NSCLC; experiment: growth of human tumour cells (NCI), 48 h

**Q.** Which TGI does the source give for COc1ccccc1N=NC(C(=O)c1ccccc1)C(=O)c1ccccc1 here?
**A.** Its TGI is 78.3 µM.

**Q.** With CC(=O)O[C@]1(C)CCC2C(C)C(=O)OC2C2C(C)[C@@H](O)CC21 (some centres undefined) as the compound, how does the TGI read?
**A.** The TGI was over 100 µM.

**Q.** With CCOC(=O)/C=C1/Oc2ccccc2C1(C)O (centres undefined) as the compound, how does the TGI read?
**A.** The TGI was over 100 µM.

**Q.** Which TGI does the source give for Cc1ccc(-c2cc(=O)c3cc4c(cc3[nH]2)OCO4)cc1 here?
**A.** Its TGI is over 63.4 µM.

**Q.** Which TGI does the source give for CCOC(=O)c1c(NNc2ccccc2)nc2ccccc2c1-c1ccccc1 here?
**A.** The TGI was 95.7 µM.

system: DMS 114 small cell lung; experiment: growth of human tumour cells (NCI), 48 h

**Q.** For COc1ccccc1N=NC(C(=O)c1ccccc1)C(=O)c1ccccc1, which TGI is on record?
**A.** The TGI was 40.5 µM.

**Q.** Which TGI does the source give for CCOC(=O)/C=C1/Oc2ccccc2C1(C)O (centres undefined) here?
**A.** Its TGI is over 100 µM.

**Q.** With Cc1ccc(-c2cc(=O)c3cc4c(cc3[nH]2)OCO4)cc1 as the compound, how does the TGI read?
**A.** Its TGI is over 100 µM.

**Q.** How did the TGI turn out when CCOC(=O)c1c(NNc2ccccc2)nc2ccccc2c1-c1ccccc1 was run?
**A.** Its TGI is 32.9 µM.

system: HCT-15 colon; experiment: growth of human tumour cells (NCI), 48 h

**Q.** How did the TGI turn out when COc1ccccc1N=NC(C(=O)c1ccccc1)C(=O)c1ccccc1 was run?
**A.** The TGI was 47.6 µM.

**Q.** How did the TGI turn out when CC(=O)O[C@]1(C)CCC2C(C)C(=O)OC2C2C(C)[C@@H](O)CC21 (some centres undefined) was run?
**A.** The TGI was 32.5 µM.

**Q.** For CCOC(=O)/C=C1/Oc2ccccc2C1(C)O (centres undefined), which TGI is on record?
**A.** The TGI was over 100 µM.

**Q.** Cc1ccc(-c2cc(=O)c3cc4c(cc3[nH]2)OCO4)cc1 was tested. Which TGI did it give?
**A.** Its TGI is 6.64 µM.

**Q.** CCOC(=O)c1c(NNc2ccccc2)nc2ccccc2c1-c1ccccc1 was tested. Which TGI did it give?
**A.** Its TGI is over 100 µM.

system: SW-620 colon; experiment: growth of human tumour cells (NCI), 48 h

**Q.** Which TGI does the source give for COc1ccccc1N=NC(C(=O)c1ccccc1)C(=O)c1ccccc1 here?
**A.** Its TGI is over 100 µM.

**Q.** How did the TGI turn out when CC(=O)O[C@]1(C)CCC2C(C)C(=O)OC2C2C(C)[C@@H](O)CC21 (some centres undefined) was run?
**A.** Its TGI is 31.2 µM.

**Q.** CCOC(=O)/C=C1/Oc2ccccc2C1(C)O (centres undefined) was tested. Which TGI did it give?
**A.** Its TGI is over 100 µM.

**Q.** Cc1ccc(-c2cc(=O)c3cc4c(cc3[nH]2)OCO4)cc1 was tested. Which TGI did it give?
**A.** Its TGI is over 100 µM.

**Q.** For CCOC(=O)c1c(NNc2ccccc2)nc2ccccc2c1-c1ccccc1, which TGI is on record?
**A.** Its TGI is over 100 µM.
